# Activity calls are given as the source filed them.
# Tests used:
# [1] = molecular target: Transitional endoplasmic reticulum ATPase (Homo sapiens, UniProt P55072, C522A); assay: C522A mutant p97 ATPase inhibitors, dose response, counter-screen for p97 inhibitor project, biochemical, luminescence (AID 1544)
# [2] = molecular target: Transitional endoplasmic reticulum ATPase (Homo sapiens, UniProt P55072); assay: p97 ATPase inhibitors, dose response, biochemical (AID 1534)
# [3] = molecular target: Induced myeloid leukemia cell differentiation protein Mcl-1 (Homo sapiens, UniProt Q07820); assay type: functional
# Beta-galactosidase = Beta-galactosidase (Escherichia coli, UniProt Q8VNN2); assay: beta-galactosidase enzyme inhibitors and activators, dose response, artefact control for CCR6 antagonist project, biochemical, E. coli enzyme, set 3 (AID 504712); assay type: functional
# Aspartyl aminopeptidase = molecular target: T1, Aspartyl aminopeptidase (Plasmodium falciparum 3D7, UniProt Q8I2J3)
# T1 sequence (Q8I2J3 whole entry): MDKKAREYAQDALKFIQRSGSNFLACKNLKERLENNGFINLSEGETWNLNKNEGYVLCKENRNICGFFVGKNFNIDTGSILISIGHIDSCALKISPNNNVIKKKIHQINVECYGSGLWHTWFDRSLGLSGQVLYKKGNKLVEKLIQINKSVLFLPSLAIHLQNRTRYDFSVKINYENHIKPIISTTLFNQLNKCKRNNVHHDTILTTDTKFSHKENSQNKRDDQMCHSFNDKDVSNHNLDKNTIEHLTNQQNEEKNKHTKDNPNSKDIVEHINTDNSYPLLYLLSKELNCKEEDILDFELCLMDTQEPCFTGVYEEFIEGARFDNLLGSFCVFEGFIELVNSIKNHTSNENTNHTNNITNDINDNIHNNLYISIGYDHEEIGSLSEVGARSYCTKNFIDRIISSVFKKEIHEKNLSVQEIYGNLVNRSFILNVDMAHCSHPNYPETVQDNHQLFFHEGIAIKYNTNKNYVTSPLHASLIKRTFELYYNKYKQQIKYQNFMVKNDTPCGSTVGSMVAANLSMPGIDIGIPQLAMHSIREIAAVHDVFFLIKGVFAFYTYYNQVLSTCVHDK
# Procathepsin L = Procathepsin L (Homo sapiens, UniProt P07711)
# [4] = tested on: Streptococcus sp. 'group A'; assay: growth inhibition of control SK(-) GAS strain, dose response, counter-screen for streptokinase expression inhibitor project, luminescence, kanamycin, BacTiterGlo, confirmation (AID 1900); assay type: functional, organism-based
# Streptococcus [5] = assay: Luminescence Microorganism-Based Dose Response Follow up to Identify Compounds Cytotoxic to Streptococcus. [Related pubchem assays: 1677 (Project Summary), 1915, 1914, 1902 (Retest at Dose), 1900 (Counter Screen), 1662 (Primary HTS)]; assay type: functional, organism-based
# Streptokinase A = molecular target: T2, Streptokinase A (Streptococcus pyogenes serotype M1, UniProt P10520); assay: S. pyogenes streptokinase expression inhibitors, potency, dose response, plasminogen activation absorbance, OD405 (AID 1914); assay type: functional, Streptococcus pyogenes M1 GAS;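 also: secreted streptokinase activity via plasminogen activation per viability signal from cell pellet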
# T2 sequence (P10520 whole entry): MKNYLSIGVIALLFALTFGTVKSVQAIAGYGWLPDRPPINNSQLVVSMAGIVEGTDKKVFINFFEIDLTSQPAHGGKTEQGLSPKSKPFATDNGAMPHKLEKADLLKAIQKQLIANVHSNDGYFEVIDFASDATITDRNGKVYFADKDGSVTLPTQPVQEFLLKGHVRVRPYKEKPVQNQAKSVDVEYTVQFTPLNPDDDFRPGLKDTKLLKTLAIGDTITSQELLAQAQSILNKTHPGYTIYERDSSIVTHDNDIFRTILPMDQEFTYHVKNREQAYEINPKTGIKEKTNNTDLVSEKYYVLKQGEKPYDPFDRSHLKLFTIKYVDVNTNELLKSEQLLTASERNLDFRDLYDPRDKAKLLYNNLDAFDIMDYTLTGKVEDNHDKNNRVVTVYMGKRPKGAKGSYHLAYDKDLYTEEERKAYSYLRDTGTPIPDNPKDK
# Streptococcus [6] = assay: Group A Streptococcus viability loss, dose response, counter-screen for streptokinase expression inhibitor project, luminescence, BacTiterGlo (AID 1915); assay type: functional, organism-based;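 also: potency for reduction of bacterial viability or growth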
# SUMO E1/E2 = SUMO E1/E2 (Homo sapiens, UniProt P63279+Q9UBE0+Q9UBT2); assay: SAR analysis of SUMOylation using HTRF in an in-Vitro dose response assay. [Related pubchem assays (depositor defined):AID2006, AID2011, AID2018, AID2069, AID2658]; assay type: functional
# [7] = molecular target: T3, Voltage-gated N-type calcium channel alpha-1B subunit/Amyloid beta A4 precursor protein-binding family A member 1 (Homo sapiens, UniProt Q00975+Q02410); assay: disruptors of Mint-PDZ/N-type channel peptide interaction – biochemical, HTRF, set 2, SAR follow-up (AID 434980); assay type: functional
# [8] = molecular target: T3, Voltage-gated N-type calcium channel alpha-1B subunit/Amyloid beta A4 precursor protein-binding family A member 1; assay: disruptors of Mint-PDZ/N-type channel peptide interaction – biochemical, HTRF, SAR follow-up (AID 2489); assay type: functional
# [9] = molecular target: Scavenger receptor class B member 1 (Mus musculus, UniProt Q61009); assay: inhibitors of SR-BI mediated HDL lipid uptake, dose response, ldlA[mSR-BI] cells, fluorescence, cherry pick (AID 493194); assay type: functional, cell-based;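 also: cellular uptake of fluorescent DiI-labeled HDL measured as cell fluorescence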
# Chain of Scavenger receptor class B member 1 (Q61009 whole entry): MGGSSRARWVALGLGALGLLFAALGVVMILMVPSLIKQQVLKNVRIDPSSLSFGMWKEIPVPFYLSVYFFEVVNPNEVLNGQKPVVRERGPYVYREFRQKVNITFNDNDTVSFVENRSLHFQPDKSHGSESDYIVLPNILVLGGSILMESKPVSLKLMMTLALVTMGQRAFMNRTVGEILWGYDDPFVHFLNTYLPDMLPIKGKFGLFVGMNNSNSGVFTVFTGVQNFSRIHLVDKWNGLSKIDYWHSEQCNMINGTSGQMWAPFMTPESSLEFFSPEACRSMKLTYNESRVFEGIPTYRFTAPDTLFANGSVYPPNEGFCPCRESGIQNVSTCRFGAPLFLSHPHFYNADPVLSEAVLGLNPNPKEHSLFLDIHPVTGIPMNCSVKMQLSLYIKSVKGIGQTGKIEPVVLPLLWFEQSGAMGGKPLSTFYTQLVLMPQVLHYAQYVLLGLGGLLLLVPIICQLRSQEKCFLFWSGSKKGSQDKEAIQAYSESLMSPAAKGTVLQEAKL
# T3 sequence (Q00975 whole entry): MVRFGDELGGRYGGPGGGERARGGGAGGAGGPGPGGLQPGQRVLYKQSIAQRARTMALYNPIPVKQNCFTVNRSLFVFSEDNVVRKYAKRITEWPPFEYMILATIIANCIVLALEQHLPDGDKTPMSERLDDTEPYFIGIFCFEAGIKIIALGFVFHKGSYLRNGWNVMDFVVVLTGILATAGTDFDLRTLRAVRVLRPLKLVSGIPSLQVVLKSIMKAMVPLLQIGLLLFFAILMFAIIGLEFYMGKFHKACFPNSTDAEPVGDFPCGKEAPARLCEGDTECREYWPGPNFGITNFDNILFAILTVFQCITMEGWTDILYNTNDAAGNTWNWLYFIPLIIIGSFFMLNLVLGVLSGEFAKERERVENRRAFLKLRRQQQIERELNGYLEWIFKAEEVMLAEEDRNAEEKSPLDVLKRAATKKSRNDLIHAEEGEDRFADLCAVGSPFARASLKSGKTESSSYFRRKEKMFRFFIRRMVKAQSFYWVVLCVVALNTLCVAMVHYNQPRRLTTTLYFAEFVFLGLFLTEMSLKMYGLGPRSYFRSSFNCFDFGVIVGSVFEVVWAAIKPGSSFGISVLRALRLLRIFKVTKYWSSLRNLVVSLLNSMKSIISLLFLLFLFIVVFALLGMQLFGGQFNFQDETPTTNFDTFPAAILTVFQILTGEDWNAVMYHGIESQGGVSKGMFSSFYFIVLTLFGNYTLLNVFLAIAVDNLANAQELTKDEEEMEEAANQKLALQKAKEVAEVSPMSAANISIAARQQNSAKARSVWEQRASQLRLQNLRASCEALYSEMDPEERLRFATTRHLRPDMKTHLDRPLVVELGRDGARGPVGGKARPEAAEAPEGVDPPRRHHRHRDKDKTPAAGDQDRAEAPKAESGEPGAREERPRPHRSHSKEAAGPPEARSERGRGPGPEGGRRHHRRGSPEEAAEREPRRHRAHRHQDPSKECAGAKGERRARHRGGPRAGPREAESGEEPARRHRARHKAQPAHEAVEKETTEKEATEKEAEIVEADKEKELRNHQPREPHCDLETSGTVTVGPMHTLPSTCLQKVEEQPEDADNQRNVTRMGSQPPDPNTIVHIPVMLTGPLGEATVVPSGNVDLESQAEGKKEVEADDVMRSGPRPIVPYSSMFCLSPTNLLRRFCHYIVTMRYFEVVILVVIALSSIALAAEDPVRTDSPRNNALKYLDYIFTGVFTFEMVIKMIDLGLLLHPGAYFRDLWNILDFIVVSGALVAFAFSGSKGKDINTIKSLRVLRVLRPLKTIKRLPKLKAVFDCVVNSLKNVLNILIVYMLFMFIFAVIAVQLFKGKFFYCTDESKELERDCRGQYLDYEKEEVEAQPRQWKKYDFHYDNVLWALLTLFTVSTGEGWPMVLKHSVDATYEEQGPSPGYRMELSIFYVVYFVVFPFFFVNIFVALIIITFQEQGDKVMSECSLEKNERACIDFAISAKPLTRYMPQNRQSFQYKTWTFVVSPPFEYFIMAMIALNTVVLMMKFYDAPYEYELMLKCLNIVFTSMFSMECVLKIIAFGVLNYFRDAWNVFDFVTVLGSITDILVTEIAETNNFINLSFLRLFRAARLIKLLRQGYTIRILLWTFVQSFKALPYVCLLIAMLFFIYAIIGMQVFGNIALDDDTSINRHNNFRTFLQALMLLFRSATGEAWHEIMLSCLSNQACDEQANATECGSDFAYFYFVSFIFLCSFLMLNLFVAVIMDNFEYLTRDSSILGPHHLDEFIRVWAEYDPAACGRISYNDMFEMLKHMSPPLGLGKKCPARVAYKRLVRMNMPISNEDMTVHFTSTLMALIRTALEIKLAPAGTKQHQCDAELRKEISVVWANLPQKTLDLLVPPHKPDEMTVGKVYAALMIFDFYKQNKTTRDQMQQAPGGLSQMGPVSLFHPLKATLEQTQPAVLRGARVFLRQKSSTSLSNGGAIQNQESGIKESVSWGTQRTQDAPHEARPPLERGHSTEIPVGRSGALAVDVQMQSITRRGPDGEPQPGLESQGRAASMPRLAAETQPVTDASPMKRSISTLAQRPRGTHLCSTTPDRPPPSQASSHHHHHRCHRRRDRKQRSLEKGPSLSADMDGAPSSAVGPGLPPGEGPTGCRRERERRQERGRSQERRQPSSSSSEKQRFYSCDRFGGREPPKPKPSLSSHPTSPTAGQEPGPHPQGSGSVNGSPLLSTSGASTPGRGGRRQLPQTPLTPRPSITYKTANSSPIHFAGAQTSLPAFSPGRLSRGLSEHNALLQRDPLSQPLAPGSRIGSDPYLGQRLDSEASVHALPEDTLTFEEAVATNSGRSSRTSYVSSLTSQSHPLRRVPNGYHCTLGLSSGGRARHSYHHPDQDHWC
# T3 sequence (Q02410 whole entry): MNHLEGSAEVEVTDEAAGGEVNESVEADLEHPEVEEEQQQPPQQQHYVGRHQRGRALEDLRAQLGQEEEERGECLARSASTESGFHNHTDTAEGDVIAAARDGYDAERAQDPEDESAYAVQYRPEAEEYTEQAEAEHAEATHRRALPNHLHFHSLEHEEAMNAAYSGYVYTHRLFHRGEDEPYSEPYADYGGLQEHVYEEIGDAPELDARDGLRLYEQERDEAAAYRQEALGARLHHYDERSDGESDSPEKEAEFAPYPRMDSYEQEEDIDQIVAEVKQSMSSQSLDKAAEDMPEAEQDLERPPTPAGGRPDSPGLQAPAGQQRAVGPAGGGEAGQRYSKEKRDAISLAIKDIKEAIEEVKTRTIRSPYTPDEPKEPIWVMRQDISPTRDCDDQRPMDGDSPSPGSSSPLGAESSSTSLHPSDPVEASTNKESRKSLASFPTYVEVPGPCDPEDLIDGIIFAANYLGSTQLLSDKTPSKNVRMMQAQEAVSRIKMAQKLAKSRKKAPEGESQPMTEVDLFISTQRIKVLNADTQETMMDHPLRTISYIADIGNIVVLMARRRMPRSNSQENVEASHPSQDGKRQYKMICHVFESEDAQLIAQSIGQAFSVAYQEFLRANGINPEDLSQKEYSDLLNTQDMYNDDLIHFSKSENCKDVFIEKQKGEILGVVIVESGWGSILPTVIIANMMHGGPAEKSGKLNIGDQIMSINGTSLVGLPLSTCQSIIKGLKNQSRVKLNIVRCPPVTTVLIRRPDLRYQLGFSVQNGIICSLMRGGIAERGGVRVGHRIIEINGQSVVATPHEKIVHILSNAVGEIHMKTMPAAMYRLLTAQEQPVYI
# Chain of Transitional endoplasmic reticulum ATPase (Homo sapiens, UniProt P55072, C522A) (P55072 2-806 C522A limits assumed): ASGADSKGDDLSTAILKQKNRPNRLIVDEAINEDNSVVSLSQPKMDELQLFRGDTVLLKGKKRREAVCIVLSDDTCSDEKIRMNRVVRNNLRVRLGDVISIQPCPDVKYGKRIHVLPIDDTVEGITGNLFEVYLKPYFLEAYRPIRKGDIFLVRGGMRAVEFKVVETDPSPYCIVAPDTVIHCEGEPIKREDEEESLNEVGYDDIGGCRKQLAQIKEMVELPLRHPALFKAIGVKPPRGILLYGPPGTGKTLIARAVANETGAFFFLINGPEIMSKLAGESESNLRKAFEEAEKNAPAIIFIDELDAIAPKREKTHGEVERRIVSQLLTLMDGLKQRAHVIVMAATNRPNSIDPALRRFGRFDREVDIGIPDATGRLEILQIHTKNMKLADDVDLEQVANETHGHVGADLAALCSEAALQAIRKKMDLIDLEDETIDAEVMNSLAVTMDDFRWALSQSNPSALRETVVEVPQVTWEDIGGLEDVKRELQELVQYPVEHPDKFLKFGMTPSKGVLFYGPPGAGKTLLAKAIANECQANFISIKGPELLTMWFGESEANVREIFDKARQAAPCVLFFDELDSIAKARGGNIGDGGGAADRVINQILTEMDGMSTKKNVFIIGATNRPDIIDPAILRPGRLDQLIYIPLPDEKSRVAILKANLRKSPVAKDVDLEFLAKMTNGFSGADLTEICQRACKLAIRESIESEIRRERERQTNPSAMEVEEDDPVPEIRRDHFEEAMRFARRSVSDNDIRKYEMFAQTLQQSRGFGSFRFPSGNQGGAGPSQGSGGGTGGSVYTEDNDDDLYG
# Chain of Induced myeloid leukemia cell differentiation protein Mcl-1 (Q07820 whole entry): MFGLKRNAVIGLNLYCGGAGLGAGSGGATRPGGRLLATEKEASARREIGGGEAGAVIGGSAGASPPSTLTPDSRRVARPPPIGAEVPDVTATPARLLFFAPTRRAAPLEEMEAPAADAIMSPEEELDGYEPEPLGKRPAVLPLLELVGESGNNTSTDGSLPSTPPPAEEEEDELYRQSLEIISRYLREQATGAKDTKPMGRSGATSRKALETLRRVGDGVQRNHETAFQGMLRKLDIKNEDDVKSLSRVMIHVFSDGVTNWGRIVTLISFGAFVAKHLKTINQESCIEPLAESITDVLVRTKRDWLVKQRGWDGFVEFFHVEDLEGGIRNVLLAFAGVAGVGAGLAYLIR
smiles,measurement,setting,value
O=C1NC(=S)S/C1=C\c1c(-c2ccccc2)[nH]c2ccccc12,IC50,[1],> 50 µM (not active)
same,IC50,[2],> 50 µM (not active)
same,IC50,[3],4.97 µM (active)
same,IC50,Beta-galactosidase,> 66.6 µM (inactive)
Cc1ccc(N2C(=O)/C(=C\Nn3cnnc3)c3ccccc3C2=O)cc1,IC50,Aspartyl aminopeptidase,1.95 µM (active)
same,IC50,Procathepsin L,> 59.6 µM (not active)
Clc1cccc(Cl)c1CSc1nnc(/C=C/c2ccccc2)o1,EC50,[4],28.8 µM (active)
same,EC50,Streptococcus [5],> 500 µM (not active)
same,EC50,Streptokinase A,4.01 µM (active)
same,EC50,Streptococcus [6],> 150 µM (not active)
O=C(NN=Cc1ccc(F)cc1)c1cc(-c2ccco2)nc2ccccc12,IC50,SUMO E1/E2,5.24 µM (active)
same,IC50,[7],10.9 µM (active)
same,IC50,[8],6.45 µM (active)
O=C(Nc1ccc(-c2csc(Nc3ccccc3)n2)cc1)c1cccc(C(F)(F)F)c1,EC50,[4],> 150 µM (not active)
same,EC50,Streptokinase A,> 150 µM (not active)
same,EC50,Streptococcus [6],> 150 µM (not active)
same,AC50,[9],0.347 µM (active)

# — ChEMBL document CHEMBL1201862, “PubChem BioAssay data set” (2004)
